Measured values from US20160177395A1, “BIOMARKERS FOR THE PREDICTION OF RENAL INJURY” (priority 2007, published 2016).
Several values for one entry are separate records, joined by “and”; a condition that tells them apart may be missing. Equal entries are not always repeated. Entries after “also recorded” stand apart in the source; their conditions may differ.

How the values were obtained:
[1] = test system: Sprague-Dawley Crl:CD(SD) rats; test: Rat toxicity study, single, 5-day and 28-day treatment (clinical observation, clinical pathology, autopsy, organ weights, histopathology);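 further: control rats received saline intraperitoneally, and the organs examined were adrenals, brain, kidneys, liver, spleen and thymus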
Method: (§1) Control animals were treated intraperitoneal with saline.
(§2) Randomization and group allocation: prior to treatment, the animals were assigned to the experimental groups based on their body weight. Mean body weight of each group at randomization was not deviate±20% of the mean population weight. Males and females were randomized separately. For the randomization, a computer program was used.
(§3) The day before autopsy, urinalysis was performed and blood samples were taken for hematology and clinical chemistry examinations.
(§4) On the day of autopsy the animals were anaesthetized with isoflurane, blood was collected for PBMC isolation then subjected to autopsy. Tissues and organs (adrenals, brain, kidneys, liver, spleen and thymus) were weighed and subjected to gross pathological and histopathological examinations.

[2] = test system: Sprague-Dawley Crl:CD(SD) rats; conditions: rat, in vivo;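 further: control rats received saline intraperitoneally, and the organs examined were adrenals, brain, kidneys, liver, spleen and thymus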
Method: as §1, §2, §3, §4

[3] = test system: kidney tissues of treated or untreated rats; test: Real-time qRT-PCR of signature amplicons, validation stage, labeled and un-labeled samples (Table 23); conditions: for H31883_DB71_seg13 normalized qRT-PCR result / MUSCYCG1R_DB81_seg19-20 normalized qRT-PCR result / W41270_DB81_seg11 normalized qRT-PCR result: labeled sample, one line per animal
In short: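 Each of four signature genes measured as wild-type and alternative-splice amplicons by qRT-PCR in treated or untreated rat kidney. Normalization was two-step: housekeeping-gene factor, then inter-plate correction from shared samples on a shuffled control plate; final values rescaled for display.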

[4] = day1, female rat kidney, listed as Tob
[5] = day1, male rat kidney, listed as Tob
[6] = day28, female rat kidney, listed as Tob
[7] = day28, male rat kidney, listed as Tob
[8] = labeled samples, day1, kidney of individual male/female rats, listed as Tob
[9] = labeled samples, day5, kidney of individual male/female rats, listed as Tob
[10] = labeled samples, day28, kidney of individual male/female rats, listed as Tob

NC[C@H]1O[C@H](O[C@H]2[C@H](O)[C@@H](O[C@H]3O[C@H](CO)[C@@H](O)[C@H](N)[C@H]3O)[C@H](N)C[C@@H]2N)[C@H](N)C[C@@H]1O [Tobramycin]
Autopsy findings ([1]; 5-day treatment): No effect | Autopsy findings ([1]; 28-day treatment, male and female rats): Enlarged, discolored kidneys; also recorded: Alterations were found in the kidneys; also recorded: ♂: ↑↑, pale | Water consumption [2]: Decrease in Tobramycin and Cadmium chloride treated females | H31883_DB71_seg13 normalized qRT-PCR result [3, 4]: 1.153 and 0.799 and 0.982 | MUSCYCG1R_DB81_seg19-20 normalized qRT-PCR result [3, 4]: 5.307 and 1.195 and 1.623 | W41270_DB81_seg11 normalized qRT-PCR result [3, 4]: 1.5 and 0.73 and 1.166 | H31883_DB71_seg13 normalized qRT-PCR result [3, 5]: 1.126 and 0.999 and 1.049 | MUSCYCG1R_DB81_seg19-20 normalized qRT-PCR result [3, 5]: 2.04 and 0.825 and 1.223 | W41270_DB81_seg11 normalized qRT-PCR result [3, 5]: 1.43 and 1.083 and 1.619 | H31883_DB71_seg13 normalized qRT-PCR result [3, 6]: 0.876 and 0.621 and 0.987 | MUSCYCG1R_DB81_seg19-20 normalized qRT-PCR result [3, 6]: 0.959 and 1.021 and 1.478 | W41270_DB81_seg11 normalized qRT-PCR result [3, 6]: 1.073 and 1.144 and 1.118 | H31883_DB71_seg13 normalized qRT-PCR result [3, 7]: 0.39 and 0.832 and 0.803 | MUSCYCG1R_DB81_seg19-20 normalized qRT-PCR result [3, 7]: 0.679 and 1.273 and 1.397 | W41270_DB81_seg11 normalized qRT-PCR result [3, 7]: 0.61 and 1.379 and 1.281 | H31883_DB71_seg13 normalized qRT-PCR expression (Cyclin-G1 (CCNG1) transcript) [3, 8]: 1.137 and 1.104 and 1.132 and 0.912 and 0.563 and 0.661 | MUSCYCG1R_DB81_seg19-20 normalized qRT-PCR expression [3, 8]: 1.582 and 0.967 and 1.506 and 1.173 and 1.025 and 0.987 | W41270_DB81_seg11 normalized qRT-PCR expression (tumor necrosis factor receptor superfamily, member 12a transcript) [3, 8]: 1.601 and 1.084 and 0.577 and 0.949 and 0.809 and 0.983 | AI045075_DB71_seg6 normalized qRT-PCR expression (Interferon stimulated exonuclease 20 (ISG20) transcript) [3, 9]: 1.327 and 1.644 and 1.614 and 1.367 and 2.402 and 1.224 | H31883_DB71_seg13 normalized qRT-PCR expression (Cyclin-G1 (CCNG1) transcript) [3, 9]: 0.863 and 0.855 and 1.237 and 0.988 and 0.858 and 1.646 | MUSCYCG1R_DB81_seg19-20 normalized qRT-PCR expression [3, 9]: 0.99 and 1.589 and 0.968 and 1.6 and 1.424 and 2.062 | W41270_DB81_seg11 normalized qRT-PCR expression (tumor necrosis factor receptor superfamily, member 12a transcript) [3, 9]: 0.559 and 2.483 and 0.802 and 1.529 and 2.317 and 0.946 | W64472_DB81_seg2 normalized qRT-PCR expression (Interferon stimulated exonuclease 20 (ISG20) transcript) [3, 9]: 1.193 and 1.871 and 1.449 and 1.063 and 1.785 and 1.447 | W83813_DB81_seg27 normalized qRT-PCR expression [3, 9]: 0.589 and 1.262 and 0.892 and 1.058 and 0.942 and 1.117 | H31883_DB71_seg13 normalized qRT-PCR expression (Cyclin-G1 (CCNG1) transcript) [3, 10]: 0.624 and 0.324 and 0.69 and 0.528 and 0.551 and 0.807 | MUSCYCG1R_DB81_seg19-20 normalized qRT-PCR expression [3, 10]: 0.713 and 0.76 and 1.087 and 0.889 and 1.268 and 0.903 | W41270_DB81_seg11 normalized qRT-PCR expression (tumor necrosis factor receptor superfamily, member 12a transcript) [3, 10]: 1.189 and 1.217 and 1.099 and 1.267 and 1.373 and 1.798 | Label: true label (Normal/Toxic), known renal toxic effect ([3]; rat, in vivo): Toxic
